Columns and labels:
[1] = target: T1, Xanthine dehydrogenase/oxidase (Bos taurus, UniProt P80457); assay: Inhibition of bovine milk xanthine-oxidase using xanthine as substrate after 5 mins by spectrophotometric method
[2] = target: T1, Xanthine dehydrogenase/oxidase; assay: Mixed-type inhibition of bovine milk xanthine oxidase assessed as enzyme-substrate-inhibitor complex using varying levels of xanthine as substrate by Line-weaver burk plot analysis
[3] = target: T1, Xanthine dehydrogenase/oxidase; assay: Mixed-type inhibition of bovine milk xanthine oxidase assessed as enzyme-inhibitor complex using varying levels of xanthine as substrate by Line-weaver burk plot analysis
[4] = target: T1, Xanthine dehydrogenase/oxidase; assay: Inhibition of bovine milk xanthine-oxidase up to 10 uM using xanthine as substrate after 5 mins by spectrophotometric method; details: cattle

T1 sequence (P80457 whole entry): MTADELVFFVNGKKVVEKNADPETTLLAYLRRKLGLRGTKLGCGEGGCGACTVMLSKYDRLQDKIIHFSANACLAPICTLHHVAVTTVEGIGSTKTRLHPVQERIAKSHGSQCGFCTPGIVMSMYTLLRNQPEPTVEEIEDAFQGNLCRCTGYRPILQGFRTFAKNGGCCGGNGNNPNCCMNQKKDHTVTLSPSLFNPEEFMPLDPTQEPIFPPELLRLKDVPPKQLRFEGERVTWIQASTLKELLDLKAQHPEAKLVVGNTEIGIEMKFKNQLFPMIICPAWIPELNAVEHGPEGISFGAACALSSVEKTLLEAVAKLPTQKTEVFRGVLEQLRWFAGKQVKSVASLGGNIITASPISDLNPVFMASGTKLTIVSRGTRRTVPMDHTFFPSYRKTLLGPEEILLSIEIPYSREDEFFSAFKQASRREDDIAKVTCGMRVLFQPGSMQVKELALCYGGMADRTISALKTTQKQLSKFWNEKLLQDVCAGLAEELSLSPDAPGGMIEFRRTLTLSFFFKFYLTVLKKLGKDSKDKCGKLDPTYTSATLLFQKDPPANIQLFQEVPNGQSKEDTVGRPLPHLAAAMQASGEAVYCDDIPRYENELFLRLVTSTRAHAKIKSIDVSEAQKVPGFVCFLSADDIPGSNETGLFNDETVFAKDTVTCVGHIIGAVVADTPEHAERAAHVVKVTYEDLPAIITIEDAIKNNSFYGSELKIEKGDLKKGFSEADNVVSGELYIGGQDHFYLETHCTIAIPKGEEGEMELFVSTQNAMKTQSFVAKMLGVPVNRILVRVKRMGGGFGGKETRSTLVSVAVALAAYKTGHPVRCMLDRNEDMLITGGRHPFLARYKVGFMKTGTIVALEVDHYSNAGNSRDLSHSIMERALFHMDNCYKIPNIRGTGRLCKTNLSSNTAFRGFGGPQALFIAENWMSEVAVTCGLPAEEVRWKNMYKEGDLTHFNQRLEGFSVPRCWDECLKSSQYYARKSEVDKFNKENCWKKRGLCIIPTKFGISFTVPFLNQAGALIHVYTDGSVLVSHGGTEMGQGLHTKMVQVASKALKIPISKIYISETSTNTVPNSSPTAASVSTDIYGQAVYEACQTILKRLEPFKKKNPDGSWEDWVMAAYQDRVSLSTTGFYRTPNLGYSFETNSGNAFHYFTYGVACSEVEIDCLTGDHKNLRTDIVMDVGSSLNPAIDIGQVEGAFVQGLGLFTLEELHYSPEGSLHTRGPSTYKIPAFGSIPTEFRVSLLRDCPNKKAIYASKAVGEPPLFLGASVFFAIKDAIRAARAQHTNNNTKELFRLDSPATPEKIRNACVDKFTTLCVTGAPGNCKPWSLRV

Compound | IC50 [1] | other results
O=C(O)c1ccc(/C=C2\Oc3cc(O)ccc3C2=O)cc1 | 68 nM | 
COc1ccc(/C=C2\Oc3cc(OCC(=O)O)ccc3C2=O)cc1 | 1570 nM | 
C=C(C)COc1ccc2c(c1)O/C(=C\c1ccc(C(=O)O)cc1)C2=O | 46 nM | inhibition (INH) ([1]; cattle, 5 min): Dose-dependent effect; Ki [2]: 1200 nM; Ki [3]: 128 nM
COc1ccc2c(c1)O/C(=C\c1ccc(C(=O)O)cc1)C2=O | 80 nM | 
COC(=O)COc1ccc2c(c1)O/C(=C\c1ccccc1)C2=O |  | inhibition (INH) [4]: Not Active
CC(Oc1ccc2c(c1)O/C(=C\c1ccccc1Cl)C2=O)C(=O)O (stereo unspecified) |  | inhibition (INH) [4]: Not Active
O=C(O)COc1ccc2c(c1)O/C(=C\c1ccc(C(=O)O)cc1)C2=O | 150 nM | 
O=C(O)COc1ccc2c(c1)O/C(=C\c1ccccc1)C2=O | 4470 nM | 
COc1ccc(/C=C2\Oc3cc(OCC(=O)O)ccc3C2=O)c(OC)c1 | 1270 nM | Ki [2]: 34.3 nM; Ki [3]: 2.9 nM
O=C(O)COc1ccc2c(c1)O/C(=C\c1ccccc1Cl)C2=O | 1230 nM | 
O=C(O)c1ccc(/C=C2\Oc3cc(OCc4cccc5ccccc45)ccc3C2=O)cc1 | 69 nM | 
O=C(O)c1ccc(/C=C2\Oc3cc(OCc4ccccc4)ccc3C2=O)cc1 | 61 nM | 
O=C(O)COc1ccc2c(c1)O/C(=C\c1ccccc1C(=O)O)C2=O | 3840 nM | 
Cc1ccc(C)c(COc2ccc3c(c2)O/C(=C\c2ccc(C(=O)O)cc2)C3=O)c1 | 62 nM | 
COc1ccccc1/C=C1\Oc2cc(OCC(=O)O)ccc2C1=O | 1300 nM | 
O=C1/C(=C/c2ccc(O)c(O)c2)Oc2cc(O)ccc21 [SULFURETIN] | 3100 nM | 
